Tests used:
Wistar rats = assay: Oral glucose challenge (2 g/kg) in fasted rats, serum glucose by enzymatic method (Mutaratase-GOD); type: in vivo, rat; conditions: male Wistar rats; for Blood Glucose at T0: fasted, agent given one hour before, sample immediately prior to oral glucose loading; for Blood Glucose at T90: 90 minutes post oral glucose challenge 2 g/kg; for Change in Blood Glucose: T0 to T90 after oral glucose 2 g/kg
Procedure: Groups of 5 male Wistar rats weighing 200+/−10 g were employed. Fasted animals were injected with agent or placebo (GLP-1, 1 nmole/kg, iv) and/or gavaged with agent or placebo (tissue kallikrein (SIGMA), 200 U) one hour prior to glucose challenge. A blood sample was taken immediately prior oral glucose loading (2 g/kg). At 90 minutes post glucose challenge a second blood sample was taken. The serum glucose samples were assessed by enzymatic method (Mutaratase-GOD) for the time points.

Sprague-Dawley rats = assay: Euglycemic hyperinsulinemic clamp in rats made insulin resistant by a high-sucrose diet; type: in vivo, rat; conditions: up to one unit by bolus IV injection, last hour of 2 h clamp, versus saline controls
Procedure: A litter of 14 Sprague-Dawley rats, (from Charles River, St-Constant, Canada), obtained at 5 weeks old are accommodated individually in cages. The animals are acclimatized to a temperature of 22° C.+/−1° C. and constant humidity and airflow conditions. The animals are fed a high sucrose diet. During the 2 weeks prior to experimentation, the animals have free access to tap water, are provided their controlled diet and their body weight and food intake are recorded every other day. The high-sucrose diet consists of 62.5% (wt/wt) sucrose, 6.5% corn oil, 20% protein (casein, purified high nitrogen), 0.3% dl-methionine, 1% vitamin mix, 4.7% mineral mix and 5% cellulose. The energy density of the high-sucrose diet is 16.81 kJ/g. This high-sucrose diet induces insulin resistance. […]
Analytical Methods—The rats are anesthetized and venous blood samples are taken for plasma glucose and insulin assessment and rapidly centrifuged. […] Resting heart rate, blood pressure and regional blood flows are recorded over 30 minutes in quiet, unrestrained and unsedated rats.
Euglycemic Clamp Methodology—All rats receive an infusion of regular porcine insulin at a rate of 16 mU·kg^−1·min^−1 for 2 hours. […] The Euglycemic hyperinsulinemic clamp is performed over 2 hours, while blood pressure, heart rate, and regional blood flow is measured continuously with blood samples. […]

| Substance | Blood Glucose at T0 (Wistar rats) | Blood Glucose at T90 (Wistar rats) | Change in Blood Glucose (Wistar rats) | Area under the curve of glucose required to maintain euglycemia (index of insulin sensitivity) (Sprague-Dawley rats) |
| --- | --- | --- | --- | --- |
| glucagon like peptide 1 [GLP-1] | 110 mg/dL | 216 mg/dL | 116.1 ± 18.1 mg/dL |  |
| kallikrein |  |  |  | greater area under the curve |
| tissue kallikrein [tissue kallkrein] | 109 mg/dL | 229 mg/dL | 120.2 ± 20.7 mg/dL |  |
